Values after ≈ are worked out from the molar mass of the structure shown. Read-outs that look alike come from different tables or passages of the source.
How the values were obtained:
Davis strain CMV = assay: Reduction of CMV-induced cytopathicity in HEL cells; assay type: cell-based, human cytomegalovirus (HCMV); details: HEL cells; for EC50: Human betaherpesvirus 5, 168 h, virus-induced cytopathicity after seven days, read-out: Antiviral EC50 (ug/ml) Davis strain CMV
Procedure, shortened: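 Confluent HEL cells were infected with 100 PFU/well CMV for 1–2 h, then washed and kept in MEM with 2% FCS and test compound. EC50 is the concentration cutting virus-induced cytopathicity by 50% versus untreated control at day 7. Where cytotoxicity interfered, percent protection at the stated concentration is given.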

HIV-2 (ROD) = assay: Inhibition of HIV-2 syncytium formation in CEM cells; assay type: cell-based; details: for EC50: Human immunodeficiency virus 2, CCRF-CEM, CEM cells, syncytium formation, day four post infection, read-out: EC50 (ug/ml) HIV-2
Procedure, shortened: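 Human T-lymphoblast CEM cells, suspended at roughly 300,000 cells per ml of culture medium, were infected with about 100 CCID50 of HIV-2 (ROD). Aliquots of 100 μl of infected cells were placed in 200 μl microtiter wells holding 100 μl of serial 5-fold compound dilutions, and syncytium formation was scored microscopically four days after infection.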

[1] = test system: HHV-6 (Z-29 strain, variant B); assay: Anti-HHV-6 activity in MOLT-3 cells (CPE and viral DNA slot blot); assay type: cell-based, human herpes virus type 6 (HHV-6); details: Homo sapiens
Protocol: (§1) Two human immature T-lymphoblastoid cell lines were used: HSB-2, obtained from American Type Culture Collection (No. CCL 120.1); and MOLT-3, purchased from ABI Technologies (Columbia, Md., USA). The cells were propagated in RPMI 1640 medium supplemented with 10% fetal calf serum, 2 mM L-glutamine, 0.075% sodium bicarbonate and gentamycin. The cultures were incubated at 37° C. in a humidified and CO2 controlled incubator.
The GS strain of HHV-6 variant A was kindly provided by Dr. R. Gallo, while the Z-29 strain of HHV-6 variant B was obtained from ABI Technologies (Columbia, Md., USA). For preparation of virus stocks, suspensions of HSB-2 cells infected with strain GS, or MOLT-3 cells infected with strain Z-29, were collected at 10–12 days post infection, when the cytopathic effect (CPE) was maximal and cells were >90% virus positive (as determined by immunofluorescence detection of HHV-6 antigens). Since the titer of virus released in culture supernatant was insufficient, virus stocks were used as whole cell suspensions, which were relatively stable when kept in aliquots at −80° C.
Stock solutions of the test compounds or of standards were prepared in dimethylsulfoxide or phosphate buffered saline (PBS). Working dilutions for the antiviral assays were prepared by appropriate dilution of the stock solutions in cell culture medium. The antiherpetic drug Foscarnet (PFA, Foscavir® from Astra, Södertälje, Sweden) was used as standard.
On day 0, the GS and Z-29 strains of HHV-6 were inoculated onto HSB-2 cells and MOLT-3 cells, respectively, at a multiplicity of infection of 0.001 CCID50 (50% cell culture infective doses) per cell, and a cell suspension having a cell density of approximately 5×10^6 cells per ml of culture medium. After two hours of virus adsorption at 37° C., the unadsorbed virus was removed by centrifugation and the infected cells were resuspended and transferred to 48-well microtrays containing the test compounds or control in two- to five-fold dilutions. The final cell density of the suspended cells was approximately 0.8×10^6 cells per ml of culture medium.
(§2) The cells were incubated at 37° C. and subcultivated on days four and seven by two-fold dilution in medium containing fresh test compound or control. On days 10–14, the cells were examined microscopically to score the viral cytopathic effect (CPE) visible by the appearance of large ballooning cells and drug toxicity. Then total DNA was extracted from the infected cells with the QIAamp Blood Kit (Qiagen, Germany), using the manufacturer's instructions, and the DNA extracts were frozen at −20° C. until further analysis.
A digoxigenin labeled probe specific for strain GS or Z-29, was prepared by PCR reaction in the presence of digoxigenin-dUTP, on a 1-μl aliquot of a DNA extract prepared from infected cells showing manifest CPE. The 5′-3′ primer sequence was GCTAGAACG TATTTGCTGCAGAACG (Seq. Id. No. 1) and […] (Seq. Id. No. 2), delimiting a 259 bp sequence within the U67 gene. The amplified product was separated on agarose gel and extracted from the gel fragment with the QIAquick gel extraction kit (Qiagen, Germany) after which the purified probe was frozen at −20° C.
For quantitation of viral DNA in the infected and drug-treated cell cultures, appropriate aliquots of the total DNA extracts (containing 5 μg of total DNA, as determined spectrophotometrically at 260 nm) were boiled during 10 min, and blotted on a nylon membrane (Hybond-N from Amersham) using a Hoefer slot blot apparatus from Pharmacia (Sweden). After UV cross-linking, the membrane was prehybridized during 30 min at 42° C. with DIG (digoxigenin) easy Hyb solution® (Boehringer Mannheim, Germany). Then, the GS- or Z-29 specific digoxigenin labeled probe was added and allowed to hybridize by incubation overnight at 42° C. […]

MOLT-3 cells = assay: Toxicity in MOLT-3 cells, changes in cell morphology by microscopic examination; assay type: cell-based, human
Protocol: as §1, §2
The antiviral IC50 was calculated by extrapolation and defined as the compound concentration that produced 50% inhibition of virus replication as determined by microscopic examination or quantitation of viral DNA. Toxicity of the compounds was expressed as minimum cytotoxic concentration (MCC), or the lowest compound concentration that caused a microscopically visible alteration in cellular morphology.

HIV-1 (IIIB) = assay: microbe, parasite or virus in culture; assay type: cell-based; details: Human immunodeficiency virus 1, IIIB, CCRF-CEM; CEM cells, syncytium formation, day four post infection; read-out: EC50 (ug/ml) HIV-1
Procedure, shortened: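 Human T-lymphoblast CEM cells at roughly 300,000 cells per ml were infected with about 100 CCID50 of HIV-1 (IIIB). Then 100 μl of the infected suspension went into 200 μl microtiter wells holding 100 μl of 5-fold serial compound dilutions. Inhibition of syncytium formation was scored microscopically on day four post infection, and protection against virus-induced cytopathicity was recorded.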

[2] = MOLT-3, read-out: EC50 Based on CPE, MOLT-3 cells, Exp. 1
[3] = MOLT-3, read-out: EC50 Based on CPE, MOLT-3 cells, Exp. 2
[4] = MOLT-3, read-out: EC50 Based on CPE, MOLT-3 cells, Exp. 3
[5] = MOLT-3, read-out: EC50 Based on Viral DMA Detection, MOLT-3 cells, Exp. 1
[6] = MOLT-3, read-out: EC50 Based on Viral DMA Detection, MOLT-3 cells, Exp. 2
[7] = MOLT-3, read-out: EC50 Based on Viral DMA Detection, MOLT-3 cells, Exp. 3

With `O=S(=O)(Cc1ccccc1)c1cccc[n+]1[O-]` [Compound 6, 2-(Benzylsulfonyl)-pyridine-N-oxide] the EC50 (Davis strain CMV) was 19.5 µg/mL (≈ 78.2 µM), the EC50 (HIV-2 (ROD)) was 4.4 µg/mL (≈ 17.7 µM) and the EC50 [1, 2] was 17.1 µg/mL (≈ 68.6 µM). It also gave an EC50 [1, 3] of 8.7 µg/mL (≈ 34.9 µM), an EC50 [1, 4] of 12.9 µg/mL (≈ 51.7 µM) and an EC50 [1, 5] of 28.1 µg/mL (≈ 113 µM). For the same compound, the EC50 [1, 6] was 17.3 µg/mL (≈ 69.4 µM), the EC50 [1, 7] was 22.7 µg/mL (≈ 91.1 µM) and the “MIC (concentration causing minimal changes in cell morphology)” value (MOLT-3 cells; Exp. 1) was 100 μg/ml. The “MIC (concentration causing minimal changes in cell morphology)” value (MOLT-3 cells; Exp. 2) was 100 μg/ml, the “MIC (concentration causing minimal changes in cell morphology)” value (MOLT-3 cells; Exp. 3) was 100 μg/ml and the EC50 (HIV-1 (IIIB)) was 4.4 µg/mL (≈ 17.7 µM).
In the case of `[O-][n+]1ccccc1[S+]([O-])Cc1ccccc1` (stereo not shown) [Compound 5, 2-(Benzylsulfinyl)-pyridine-N-oxide], the “Antiviral % Inhibition Davis strain CMV” value (Davis strain CMV; estimate of percent protection at the concentration in the previous column) is reported as 0.0%, the EC50 (Davis strain CMV) is reported as over 50 µg/mL and the EC50 (HIV-2 (ROD)) is reported as 2.1 µg/mL (≈ 9 µM). It also gave an EC50 [1, 2] of over 100 µg/mL, an EC50 [1, 3] of over 200 µg/mL and an EC50 [1, 4] of over 100 µg/mL. The EC50 [1, 5] was over 100 µg/mL, the EC50 [1, 7] was over 100 µg/mL and the “MIC (concentration causing minimal changes in cell morphology)” value (MOLT-3 cells; Exp. 1) was 100 μg/ml. The “MIC (concentration causing minimal changes in cell morphology)” value (MOLT-3 cells; Exp. 2) was 100 μg/ml, the “MIC (concentration causing minimal changes in cell morphology)” value (MOLT-3 cells; Exp. 3) was 100 μg/ml and the EC50 (HIV-1 (IIIB)) was 3.4 µg/mL (≈ 14.6 µM).
`O=C(O)P(=O)(O)O` [PFA, Foscarnet, reference compound] showed an EC50 [1, 2] of 8.9 µg/mL (≈ 70.6 µM), an EC50 [1, 3] of 4 µg/mL (≈ 31.7 µM) and an EC50 [1, 4] of 6.5 µg/mL (≈ 51.6 µM). For the same compound, the EC50 [1, 5] was 9.4 µg/mL (≈ 74.6 µM), the EC50 [1, 6] was 8.8 µg/mL (≈ 69.8 µM) and the EC50 [1, 7] was 9.1 µg/mL (≈ 72.2 µM). For the same compound, the “MIC (concentration causing minimal changes in cell morphology)” value (MOLT-3 cells; Exp. 1) was over 100 μg/ml, the “MIC (concentration causing minimal changes in cell morphology)” value (MOLT-3 cells; Exp. 2) was over 100 μg/ml and the “MIC (concentration causing minimal changes in cell morphology)” value (MOLT-3 cells; Exp. 3) was over 100 μg/ml.
With `Cc1ccc(C)c(CS(=O)(=O)c2c(C)ccc[n+]2[O-])c1` [Compound 165, 2-[((2,5-dimethylphenyl)methyl)sulfonyl]-3-methylpyridine-1-oxide] the melting point was 171 to 173 °C, the EC50 (HIV-2 (ROD)) was over 4 µg/mL and the “HIV-2 % Protection” value (HIV-2 (ROD); protection of CEM cells against virus-induced cytopathicity at the concentration in the previous column) was 0.0%. It also gave an EC50 (HIV-1 (IIIB)) of 0.14 µg/mL (≈ 0.48 µM).
`Cc1ccc(C)c(CS(=O)(=O)c2cccc[n+]2[O-])c1` [Compound 10, 2-(2,5-Dimethylphenylmethylsulfonyl)pyridine N-oxide] showed an EC50 (Davis strain CMV) of 10 µg/mL (≈ 36.1 µM), an EC50 (HIV-2 (ROD)) of 5.8 µg/mL (≈ 20.9 µM) and an EC50 [1, 2] of 12.6 µg/mL (≈ 45.4 µM). For the same compound, the EC50 [1, 3] was 11.1 µg/mL (≈ 40 µM), the EC50 [1, 4] was 11.8 µg/mL (≈ 42.5 µM) and the EC50 [1, 5] was 21.8 µg/mL (≈ 78.6 µM). The EC50 [1, 6] was 9.4 µg/mL (≈ 33.9 µM), the EC50 [1, 7] was 15.6 µg/mL (≈ 56.2 µM) and the “MIC (concentration causing minimal changes in cell morphology)” value (MOLT-3 cells; Exp. 1) was 50 μg/ml. The “MIC (concentration causing minimal changes in cell morphology)” value (MOLT-3 cells; Exp. 2) was 100 μg/ml, the “MIC (concentration causing minimal changes in cell morphology)” value (MOLT-3 cells; Exp. 3) was “≧50 μg/ml” and the EC50 (HIV-1 (IIIB)) was 1.8 µg/mL (≈ 6.49 µM).
